In US20160213742A1, “COMPOSITIONS AND METHODS FOR THE TREATMENT OF FUNGAL INFECTIONS” (priority 2013, published 2016):
Values after ≈ are worked out from the molar mass of the structure shown. Like-named read-outs stand apart in the source and are kept apart here.

Experiments:
Format in all cases: cell-based
C. krusei ATCC 14243 = test: microbe, parasite or virus in culture
Procedure: (§1) The test organisms consisted of strains from the Micromyx collection. Reference isolates were originally received from the American Type Culture Collection (ATCC; Manassas, Va.). Organisms received at Micromyx were initially streaked for isolation on Sabouraud dextrose or potato dextrose agar. Colonies were picked by swab from the medium and resuspended in the appropriate broth containing cryoprotectant. The suspensions were aliquoted into cryogenic vials and maintained at −80° C. Prior to testing, Candida isolates were streaked from the frozen vials on Sabouraud dextrose agar. The yeast isolates were incubated at overnight at 35° C. before use. The fungal isolates were incubated at least 7 days on Sabouraud dextrose agar slants at 35° C. before harvesting.
(§2) Isolates were tested in RPMI medium (Catalog No. SH30011.04; Lot No. AWA92121B; HyClone Labs, Logan, Utah) which was prepared according to CLSI guidelines. The pH of the medium was adjusted to 7.0 with 1 N NaOH. The medium was sterile filtered using a 0.2 μm PES filter and stored at 4° C. until used.
(§3) The MIC assay method employed automated liquid handlers to conduct serial dilutions and liquid transfers. Automated liquid handlers included the Multidrop 384 (Labsystems, Helsinki, Finland), Biomek 2000 and Biomek FX (Beckman Coulter, Fullerton Calif.). The wells in columns 2-12 in standard 96-well microdilution plates (Costar 3795) were filled with 150 μl of the correct diluent (50% DMSO for investigational compounds, 100% DMSO for comparator compounds). These would become the mother plates' from which ‘daughter’ or test plates would be prepared. Stocks were diluted to 40× the desired top concentration in the test plates in the indicated solvent, and 300 μL of the 40× stock was dispensed into the appropriate well in Column 1 of the mother plates. The Biomek 2000 was used to make serial serial 2-fold dilutions through Column 11 in the “mother plate”. The wells of Column 12 contained no drug and served as the organism growth control wells.
(§4) The daughter plates were loaded with 185 μL per well of RPMI described above using the Multidrop 384. The daughter plates were prepared using the Biomek FX which transferred 5 μL of drug solution from each well of a mother plate to the corresponding well of the daughter plate in a single step.
(§5) A standardized inoculum of each organism was prepared. For Candida, colonies were picked from the streak plate and a suspension was prepared in RPMI medium equal to a 0.5 McFarland standard, then diluted 1:100 in RPMI and transferred to compartments of sterile reservoirs divided by length (Beckman Coulter). For the Aspergillus isolates, previously prepared and quantitated suspensions were used to make dilutions in RPMI to reach 20× the final concentration. These dilutions were also transferred to compartments of sterile reservoirs divided by length (Beckman Coulter). The final concentration of the Aspergillus isolates was approximately 0.2-2.5×10^4 CFU/mL.
(§6) The Biomek 2000 was used to inoculate the plates. Daughter plates were placed on the Biomek 2000 work surface reversed so that inoculation took place from low to high drug concentration. The Biomek 2000 delivered 10 μL of standardized inoculum into each well. Thus, the wells of the daughter plates ultimately contained 185 μL of RPMI, 5 μL of drug solution, and 10 μL of inoculum. The final concentration of DMSO in the test well was 2.5% for the evaluated comparators and 1.25% for the investigational agents.
(§7) Plates were stacked 3 high, covered with a lid on the top plate, placed into plastic bags, and incubated at 35° C. for approximately 24-48 hr prior to reading. Plates were read when inoculum was confluent in growth wells. Plates were viewed from the bottom using a plate viewer. […] MICs were read where visible growth of the organism was inhibited. MECs were read where the growth shifted to a small, rounded, compact hyphal form as compared to the hyphal growth seen in the growth control well.

[1] = tested on: C. parapsilosis ATCC 22019; test: microbe, parasite or virus in culture
Procedure: as §1, §2, §3, §4, §5, §6, §7

C. albicans ATCC 90028 = test: microbe, parasite or virus in culture
Procedure: as §1, §2, §3, §4, §5, §6, §7

C. glabrata ATCC 90030 = test: microbe, parasite or virus in culture
Procedure: as §1, §2, §3, §4, §5, §6, §7

A. flavus MX 5948 = test: MEC assay (Example 31); details: RPMI pH 7.0, 35° C., 24-48 hr
Procedure: as §1, §2, §3, §4, §5, §6, §7

A. fumigatus MX 5944 = test: MEC assay (Example 31); details: RPMI pH 7.0, 35° C., 24-48 hr
Procedure: as §1, §2, §3, §4, §5, §6, §7

A. fumigatus MYA-4609 = test: MEC assay (Example 31); details: RPMI pH 7.0, 35° C., 24-48 hr
Procedure: as §1, §2, §3, §4, §5, §6, §7

A. fumigatus MYA-3626 = test: MEC assay (Example 31); details: RPMI pH 7.0, 35° C., 24-48 hr
Procedure: as §1, §2, §3, §4, §5, §6, §7

A. fumigatus ATCC 13073 = test: MEC assay (Example 31); details: RPMI pH 7.0, 35° C., 24-48 hr
Procedure: as §1, §2, §3, §4, §5, §6, §7

[2] = tested on: Neutrophils purified from human peripheral blood; test: Human Neutrophil Transwell Migration Assay; details: 37° C., 45 minutes, % of the maximum migration possible
Text: Neutrophils were purified from human peripheral blood utilizing PolymorphPrep. Red blood cells were lysed with a lysis buffer and the cells were washed, counted and resuspended in assay buffer. Neutrophils (approximately 50,000 to 100,000 in number) were placed over 5-micon pore sized transwell plates in 24-well format with test compounds in the bottom chamber of each well. A negative control of media alone in the bottom chamber was set up in triplicate. A positive control where the neutrophils were added directly to the bottom well was set up in triplicate.
The plates were incubated at 37° C. for 45 minutes to allow for migration. After this time, migration was confirmed visually and then an aliquot (⅙^th of total cells) from each well was taken for ATP detection via luminescence with ATPlite (PerkinElmer) to quantify the number of migrated cells. The averaged reading for random migration detected in the negative control was subtracted from all readings to obtain the corrected migration number. These numbers were then divided by the averaged reading from the positive control to get the % Neutrophil Migration of the maximum migration possible.

Structure (SMILES) | MIC (C. krusei ATCC 14243; ATCC 14243, pH 7) [µg/mL] | MIC ([1]; ATCC 22019, pH 7) [µg/mL] | MIC (C. albicans ATCC 90028; ATCC 90028, pH 7) [µg/mL] | MIC (C. glabrata ATCC 90030; ATCC 90030, pH 7) [µg/mL] | MEC (A. flavus MX 5948) | MEC (A. fumigatus MX 5944) [µg/mL] | MEC (A. fumigatus MYA-4609) [µg/mL] | MEC (A. fumigatus MYA-3626) [µg/mL] | MEC (A. fumigatus ATCC 13073) | % Neutrophil Migration ([2]; conc 0.001 μg/mL) [%] | % Neutrophil Migration ([2]; conc 0.01 μg/mL) [%] | % Neutrophil Migration ([2]; conc 0.1 μg/mL) [%] | % Neutrophil Migration ([2]; conc 1 μg/mL) [%] | % Neutrophil Migration ([2]; conc 10 μg/mL) [%] | MIC (C. krusei ATCC 14243; Pichia kudriavzevii, ATCC14243, C. krusei ATCC 14243, RPMI pH 7.0, 35° C., 24-48 hr, read-out: MIC) [µg/mL] | MIC ([1]; Lodderomyces parapsilosis, ATCC22019, C. parapsilosis ATCC 22019, RPMI pH 7.0, 35° C., 24-48 hr, read-out: MIC) [µg/mL] | MIC (C. albicans ATCC 90028; Candida albicans, ATCC90028, C. albicans ATCC 90028, RPMI pH 7.0, 35° C., 24-48 hr, read-out: MIC) [µg/mL] | MIC (C. glabrata ATCC 90030; Nakaseomyces glabratus, ATCC90030, C. glabrata ATCC 90030, RPMI pH 7.0, 35° C., 24-48 hr, read-out: MIC) [µg/mL]
CC[C@H](C)C[C@H](C)CCCCCCCCC(=O)N[C@H]1C[C@@H](O)[C@@H](NCCNC(=O)CCNC(=O)[C@H](Cc2ccccc2)NC(=O)[C@H](CC(C)C)NC(=O)[C@H](CCSC)NC=O)NC(=O)[C@@H]2[C@@H](O)CCN2C(=O)[C@H]([C@H](O)CCN)NC(=O)[C@H]([C@H](O)[C@@H](O)c2ccc(O)cc2)NC(=O)[C@@H]2C[C@@H](O)CN2C(=O)[C@H]([C@@H](C)O)NC1=O [Compound 4] | 8 (≈ 5.05 µM) | 32 (≈ 20.2 µM) | 2 (≈ 1.26 µM) | 4 (≈ 2.53 µM) | 1 µg/mL | 1 | 1 | 2 | 1 µg/mL | 3.8 | 88.0 | 15.1 | −9.8 | −11.2 | – | – | – | –
CC[C@H](C)C[C@H](C)CCCCCCCCC(=O)N[C@H]1C[C@@H](O)[C@@H](NCCN)NC(=O)[C@@H]2[C@@H](O)CCN2C(=O)[C@H]([C@H](O)CCNC(=O)[C@H](CC(C)C)NC(=O)[C@H](CCSC)NC=O)NC(=O)[C@H]([C@H](O)[C@@H](O)c2ccc(O)cc2)NC(=O)[C@@H]2C[C@@H](O)CN2C(=O)[C@H]([C@@H](C)O)NC1=O [Compound 27] | 8 (≈ 5.86 µM) | 16 (≈ 11.7 µM) | 2 (≈ 1.46 µM) | 2 (≈ 1.46 µM) | 0.06 µg/mL | 0.12 | 0.12 | 0.25 | 8 µg/mL | −1.6 | 3.4 | −4.2 | −1.6 | 37.0 | – | – | – | –
CC[C@H](C)C[C@H](C)CCCCCCCCC(=O)N[C@H]1C[C@@H](O)[C@@H](OCCN)NC(=O)[C@@H]2[C@@H](O)CCN2C(=O)[C@H]([C@H](O)CCNC(=O)CCNC(=O)[C@H](Cc2ccccc2)NC(=O)[C@H](CC(C)C)NC(=O)[C@H](CCSC)NC=O)NC(=O)[C@H]([C@H](O)[C@@H](O)c2ccc(O)cc2)NC(=O)[C@@H]2C[C@@H](O)CN2C(=O)[C@H]([C@@H](C)O)NC1=O [Compound 10] | 16 (≈ 10.1 µM) | 32 (≈ 20.2 µM) | 2 (≈ 1.26 µM) | 8 (≈ 5.05 µM) | 0.12 µg/mL | 0.12 | 0.12 | 0.12 | 0.25 µg/mL | – | – | – | – | – | – | – | – | –
CC[C@H](C)C[C@H](C)CCCCCCCCC(=O)N[C@H]1C[C@@H](O)[C@@H](OCCNC(=O)[C@H](Cc2ccccc2)NC(=O)[C@H](CC(C)C)NC(=O)[C@H](CCSC)NC=O)NC(=O)[C@@H]2[C@@H](O)CCN2C(=O)[C@H]([C@H](O)CCN)NC(=O)[C@H]([C@H](O)[C@@H](O)c2ccc(O)cc2)NC(=O)[C@@H]2C[C@@H](O)CN2C(=O)[C@H]([C@@H](C)O)NC1=O [Compound 12] | 8 to 16 | 8 to 16 | 1 to 2 | 4 to 8 | ≦0.03-0.12 μg/mL | 0.12 to 0.25 | 0.06 to 0.12 | 0.06 to 0.25 | ≦0.03-0.12 μg/mL | – | – | – | – | – | – | – | – | –
CC[C@H](C)C[C@H](C)CCCCCCCCC(=O)N[C@H]1C[C@@H](O)[C@@H](NCCN)NC(=O)[C@@H]2[C@@H](O)CCN2C(=O)[C@H]([C@H](O)CCNC(=O)CCNC(=O)[C@H](Cc2ccccc2)NC(=O)[C@H](CC(C)C)NC(=O)[C@H](CCSC)NC(C)=O)NC(=O)[C@H]([C@H](O)[C@@H](O)c2ccc(O)cc2)NC(=O)[C@@H]2C[C@@H](O)CN2C(=O)[C@H]([C@@H](C)O)NC1=O [Compound 7] | 16 (≈ 10 µM) | 32 (≈ 20 µM) | 2 (≈ 1.25 µM) | 8 (≈ 5.01 µM) | 1 µg/mL | 1 | 0.5 | 0.5 | 1 µg/mL | – | – | – | – | – | – | – | – | –
CC[C@H](C)C[C@H](C)CCCCCCCCC(=O)N[C@H]1C[C@@H](O)[C@@H](NCCNC(=O)CCNC(=O)[C@H](Cc2ccccc2)NC(=O)[C@H](CC(C)C)NC(=O)[C@H](CCSC)NC(C)=O)NC(=O)[C@@H]2[C@@H](O)CCN2C(=O)[C@H]([C@H](O)CCN)NC(=O)[C@H]([C@H](O)[C@@H](O)c2ccc(O)cc2)NC(=O)[C@@H]2C[C@@H](O)CN2C(=O)[C@H]([C@@H](C)O)NC1=O [Compound 8] | 8 (≈ 5.01 µM) | 32 (≈ 20 µM) | 2 (≈ 1.25 µM) | 4 (≈ 2.5 µM) | 1 µg/mL | 1 | 1 | 1 | 1 µg/mL | – | – | – | – | – | – | – | – | –
C[C@@H](c1ncncc1F)[C@](O)(Cn1cncn1)c1ccc(F)cc1F [voriconazole, reference compound] | – | – | – | – | 0.25 to 2 µg/mL | 0.12 to 0.25 | 0.25 to 0.5 | 0.12 to 0.5 | 0.012-0.5^ μg/mL | – | – | – | – | – | 0.25 to 1 (≈ 0.716 to 2.86 µM) | 0.03 to 0.06 (≈ 0.0859 to 0.172 µM) | 0.06 to 0.5 (≈ 0.172 to 1.43 µM) | 0.12 to 0.25 (≈ 0.344 to 0.716 µM)
